# Assay results published in US10688077B2, “Inflammasome activation in myelodysplastic syndromes” (H. Lee Moffitt Cancer Center and Research Institute, Inc., priority 2015, dated 2020).
# Key:
# U937 cells [1] = test: S100A9 flow cytometry experiments in U937 cells (a-caspase-1/annexin-V); assay type: cell-based
# Procedure: Monocytic U937 cells were treated with the indicated concentrations of rhS100A9 for 24 hours, or with 5 μg/mL rhS100A9 for the indicated time points. Subsequently, cells were stained with 30×FAM-FLICA® Caspase-1 solution at a ratio of 1:30 for 2 hours at 37° C. Cells were washed, resuspended in 1× binding buffer, and stained with Annexin-V:PE at a dilution of 1:30 for 15 minutes at room temperature. 1× binding buffer was added to a final volume of 350 μL. Sample acquisitions were carried out using a BD FACSCalibur flow cytometer (BD Biosciences). Data were analyzed using FlowJo 9.7.5 software.
# U937 cells [2] = test: NLRP3 inflammasome confocal microscopy in U937 cells; assay type: cell-based; conditions: 5 μg/mL, 24 hours
# normal BM-MNC [3] = test: qPCR of pyroptosis-associated genes in normal BM-MNC treated with rhS100A9; assay type: cell-based, human; conditions: 1 μg/mL, 24 hours, n=2
# Procedure: PCR RNA was isolated from BM-MNC using the RNeasy Mini Kit (Qiagen). cDNA was produced using the iScript cDNA Synthesis Kit (Bio-Rad). Sequences for primers can be found in Table 1. GAPDH mRNA was used for transcript normalization. cDNA was amplified using the iQ SYBR Green Supermix and the CFX96 Real-Time PCR Detection System (Bio-Rad). PCR conditions were as follows: 10 minutes at 95° C., followed by 40 cycles of amplification (15 seconds at 95° C. and 1 minute at 60° C.). Relative gene expression was calculated using the […] method.
# normal BM-MNC [4] = test: a-caspase-1/NLRP3 confocal microscopy in normal BM-MNC treated with rhS100A9; assay type: cell-based, human; conditions: 5 pig/mL rhS100A9, 24 hours
# Procedure: (§1) MDS and normal donor BM-MNC and mouse BM cells were stained with 30×FAM-FLICA® Caspase-1 solution at a ratio of 1:30 for 2 hours at 37° C. Cells were washed and cytospins were generated using a 5 minutes centrifugation at 450 rpm. Slides were fixed at 37° C. for 10 minutes using BD Cytofix Fixation Buffer (BD Biosciences), and subsequently washed using PBS. Cells were permeabilized with 0.1% Triton X-100/2% BSA in PBS for 15 minutes at room temperature. After washing with PBS, cells were blocked using 2% BSA in PBS for 30 minutes at room temperature, and washed again. Cells were incubated with the appropriate primary antibody overnight (1:400 for NLRP3, 1:20 for β-catenin) at 4° C. The next day, cells were washed with PBS and incubated with the appropriate secondary antibodies (1:500) for 1 hour at room temperature. After washing, cells were covered with ProLong Gold Antifade Reagent with DAPI prior to the addition of a coverslip (Life Technologies). Co-localization of a-caspase-1 with NLRP3 inflammasome complexes was assessed using a Leica TCS SP5 AOBS Laser Scanning Confocal microscope (Leica Microsystems). Analysis of the inflammasome images was performed with Definiens Developer 2.0 (Definiens AG). The software was used to segment cells based on brightness and size thresholds, followed by a watershed segmentation algorithm. Intensity values and Pearson's correlation coefficient were extracted from the segmented cells. For β-catenin image analysis, confocal images were imported into Definiens Tissue Studio v3.0, 64 Dual in .tif format. Cells were separated from background using the RGB thresholds. Nuclei were identified by setting thresholds in the DAPI channel. Typical cells averaged 60 microns. The red intensity (β-catenin) in the nucleus and cytoplasm was established by setting thresholds to low, medium and high in the red channel on a scale of 0-255 in the red channel.
# U937 cells [5] = test: Pore formation, ethidium bromide uptake in U937 cells; assay type: cell-based; conditions: 5 μg/mL rhS100A9, 12.5 μg/mL ethidium bromide
# [6] = test system: BM cells isolated from WT mice; test: a-caspase-1/NLRP3 confocal microscopy in WT mouse BM cells treated with rhS100A9; assay type: cell-based; conditions: 5 μg/mL, 24 hours
# Procedure: as §1
# U937 cells [7] = test: ROS detection by flow cytometry in U937 cells; assay type: cell-based; conditions: 5 μg/mL, 24 hours, compared to untreated cells
# From the text: (§2) ROS were detected using CM-H2DCFDA and CellROX® Deep Red Reagent according to manufacturer's protocol (Life Technologies).
# U937 cells [8] = test: Comet assay (DNA damage) in U937 cells; assay type: cell-based; conditions: 5 μg/mL, 24 hours, compared to untreated cells
# Procedure: Monocytic U937 cells were treated with 5 μg/mL rhS100A9 for 24 hr.
# DNA damage was measured by single cell gel electrophoresis using alkaline CometAssay® according to manufacturer's protocol (Trevigen Inc.).
# U937 cells [9] = test: Nuclear β-catenin confocal microscopy in U937 cells; assay type: cell-based; conditions: 5 μg/mL, 24 hours, compared to untreated cells
# normal BM-MNC [10] = test: Nuclear β-catenin confocal microscopy in normal BM-MNC; assay type: cell-based, human
# Procedure: as §1, with “Intensity values and Pearson's correlation coefficient were extracted from the segmented cells. For β-catenin image analysis, confocal images were imported into Definiens Tissue Studio v3.0, 64 Dual in .tif format. Cells were separated from background using the RGB thresholds. Nuclei were identified by setting thresholds in the DAPI channel. Typical cells averaged 60 microns. The red intensity (β-catenin) in the nucleus and cytoplasm was established by setting thresholds to low, medium and high in the red channel on a scale of 0-255 in the red channel.” left out
# [11] = test system: U2AF1 S34F mutant expressing TF-1 cells; test: Nuclear β-catenin confocal microscopy in U2AF1-S34F mutant cells; assay type: cell-based; conditions: treated 24 hours prior to staining
# [12] = test system: SF3B1-K700E mutant-expressing BM cells; test: ASC staining to detect inflammasome formation by flow cytometry, SF3B1-K700E BM cells; assay type: cell-based, mice; conditions: treated 24 hours
# Procedure: Staining was carried out as described ([…], et al. J Immunol. 2015 194(1):455-62). Briefly, cell pellets were resuspended in 1 mL of prewarmed BD Permeabilization Buffer III, and incubated on ice for 30 minutes. Cells were washed 2× with staining buffer. Following washing, cells were stained with rabbit-anti-ASC primary antibodies at a 1:1500 dilution and incubated for 90 minutes. Cells were washed, stained with secondary antibodies at a dilution of 1:1500, and incubated for 45 minutes. Cells were washed, and sample acquisitions were carried out using a BD LSR II flow cytometer and FACSDiva software.
# [13] = test system: SF3B1-K700E-expressing mutant BM cells; test: ROS detection by flow cytometry, SF3B1-K700E BM cells; assay type: cell-based, mice
# From the text: as §2
# [14] = test system: SF3B1-K700E mutant-expressing BM cells; test: Nuclear β-catenin confocal microscopy, SF3B1-K700E BM cells; assay type: cell-based, mice; conditions: treated 24 hours
# Procedure: as §1, with “Intensity values and Pearson's correlation coefficient were extracted from the segmented cells. For β-catenin image analysis, confocal images were imported into Definiens Tissue Studio v3.0, 64 Dual in .tif format. Cells were separated from background using the RGB thresholds. Nuclei were identified by setting thresholds in the DAPI channel. Typical cells averaged 60 microns. The red intensity (β-catenin) in the nucleus and cytoplasm was established by setting thresholds to low, medium and high in the red channel on a scale of 0-255 in the red channel.” left out
compound,measurement,setting,value
"rhS100A9: recombinant human S100A9, DAMP/alarmin protein, TLR4 and CD33 ligand",activation of caspase-1,"U937 cells [1]; 5 μg/mL, over time",time-dependent increase
same,fraction of pyroptotic cells,"U937 cells [1]; increasing concentrations, 24 hours",concentration-dependent increase
same,levels of NLRP3 inflammasome complexes,U937 cells [2],markedly increased
same,expression of pyroptosis-associated genes,normal BM-MNC [3],significantly up-regulated
same,a-caspase-1 levels induced,normal BM-MNC [4],2.5 fold
same,formation of NLRP3 inflammasomes induced,normal BM-MNC [4],2.9 fold
same,NLRP3 levels induced,normal BM-MNC [4]; p=0.064,47.1 fold
same,uptake of ethidium bromide,U937 cells [5],rapid and substantial uptake
same,inflammasome complexes,[6]; p=0.023,marked induction
same,MFI of NLRP3,"[6]; versus controls, p=0.017",significantly increased
same,MFI of a-caspase-1,"[6]; versus controls, p=7.5×10^−3",significantly increased
same,increase in the mean percentage of ROS-positive cells,U937 cells [7],2.9 fold
same,increase in DNA damage,U937 cells [8],4.1 fold
same,levels of nuclear (activated) β-catenin,U937 cells [9],marked increases
same,levels of nuclear β-catenin,"normal BM-MNC [10]; 5 μg/mL, 24 hours, compared to controls",elevated levels
c1ccc2c(c1)[I+]c1ccccc1-2 [DPI],β-catenin activation (nuclear β-catenin),[11],effectively reduced β-catenin activation
same,inflammasome formation (ASC oligomerization),[12],significantly reduced
same,ROS MFI,[13],extinguished below the level of WT controls
same,mean percentage of ROS+ cells,[13],extinguished below the level of WT controls
same,percentage of cells with elevated levels of nuclear β-catenin,[14],significantly reduced
"CC(=O)N[C@@H](CS)C(=O)O [NAC, N-acetylcysteine]",β-catenin activation (nuclear β-catenin),[11],effectively reduced β-catenin activation
same,inflammasome formation (ASC oligomerization),[12],significantly reduced
same,ROS MFI,[13],extinguished below the level of WT controls
same,mean percentage of ROS+ cells,[13],extinguished below the level of WT controls
same,percentage of cells with elevated levels of nuclear β-catenin,[14],significantly reduced
same,S100A9-triggered nuclear translocation of β-catenin,normal BM-MNC [10]; S100A9 treated normal BM-MNC,abolished
